From patent publication US9771343B2, “2-alkyl-or-aryl-substituted tanshinone derivatives, and preparation method and application thereof” (Hangzhou Bensheng Pharmaceutical Co., Ltd., priority 2011, dated 2017)
Values after ≈ are worked out from the molar mass of the structure shown.

What was measured:
[1] = system: CNE (nasopharyngeal carcinoma cell); assay: MTT cell growth inhibition, CNE cells, 72 h; type: cell-based, human
Method: (§1) The standard sample of tanshinone I (TA) and the 2-alkyl- or 2-aromatic-substituted tanshinone I derivatives of the present invention are sufficiently dissolved in dimethylsulfoxide to produce a stock solution of 10 mg/mL, which is refrigerated at 4° C. and stored in dark, and is diluted with a cell culture medium to the desired concentration prior to experimentation.
(§2) Obtaining 6000 well-growing human solid tumor cells and inoculating them into wells of a 96-well cell culture plate. The culture medium is DMEM High Glucose cell culture medium containing 10% fetal bovine serum. The plate is placed in a carbon dioxide cell incubator (5% CO2) at 37° C. and incubated for 24 hours. After adding the 2-alkyl- or 2-aromatic-substituted tanshinone I derivatives of different concentrations and mixing uniformly, the plate is placed in a carbon dioxide cell incubator (5% CO2) at 37° C. and incubated for 72 hours. Then the viable cell concentration is determined by MTT method. In this experiment, the cell viability in control group (not treated with any compound) is set as 100%, and the cell viability (%) after treatment by the compounds and the half maximum inhibitory concentration for the leukemia cell at 72 hours (IC50 value of 72 hours, μg/mL) are calculated.

[2] = system: CaES-17 (esophageal cancer cell); assay: MTT cell growth inhibition, CaES-17 cells, 72 h; type: cell-based, human; conditions: Homo sapiens, CaEs17, CaEs-17, 72 h
Method: as §1, §2

[3] = system: NB4 (acute promyelocytic leukemia, AML); assay: MTT cell growth inhibition, NB4 leukemia cells, 72 h; type: cell-based; conditions: NB4, 72 h
Method: as §1, with “with” for “with a”, “to a” for “to the”
as §2, with “leukemia” for “human solid tumor”, “the RPMI-1640” for “DMEM High Glucose”, “serum.” for “serum. The plate is placed in a carbon dioxide cell incubator (5% CO2) at 37° C. and incubated for 24 hours.”, “adding on the second day” for “adding”, “uniformly, placing” for “uniformly,”, “plate” for “plate is placed”

MG63 (osteosarcoma) = assay: MTT cell growth inhibition, MG63 cells, 72 h; type: cell-based, human; conditions: Homo sapiens, MG-63, 72 h
Method: as §1, §2

[4] = system: Jurkat (acute lymphoblastic leukemia, ALL); assay: MTT cell growth inhibition, Jurkat leukemia cells, 72 h; type: cell-based
Method: as §1, with “with” for “with a”, “to a” for “to the”
as §2, with “leukemia” for “human solid tumor”, “the RPMI-1640” for “DMEM High Glucose”, “serum.” for “serum. The plate is placed in a carbon dioxide cell incubator (5% CO2) at 37° C. and incubated for 24 hours.”, “adding on the second day” for “adding”, “uniformly, placing” for “uniformly,”, “plate” for “plate is placed”

[5] = system: PANC-1 (pancreatic cancer); assay: MTT cell growth inhibition, PANC-1 cells, 72 h; type: cell-based, human; conditions: Homo sapiens, PANC-1, 72 h
Method: as §1, §2

[6] = system: U87 MG (malignant glioma cell); assay: MTT cell growth inhibition, U87 MG cells, 72 h; type: cell-based, human
Method: as §1, §2

[7] = system: MGC 803 (human gastric cancer cell); assay: MTT cell growth inhibition, MGC 803 cells, 72 h; type: cell-based; conditions: Homo sapiens, MGC-803, 72 h
Method: as §1, §2

[8] = system: RKO (human colon adenocarcinoma cell); assay: MTT cell growth inhibition, RKO cells, 72 h; type: cell-based
Method: as §1, §2

[9] = system: Becap37 (human breast cancer cell); assay: MTT cell growth inhibition, Becap37 cells, 72 h; type: cell-based
Method: as §1, §2

[10] = system: Hep G2 (human liver cancer cell); assay: MTT cell growth inhibition, Hep G2 cells, 72 h; type: cell-based
Method: as §1, §2

A549 (human lung cancer) = assay: MTT cell growth inhibition, A549 cells, 72 h; type: cell-based; conditions: Homo sapiens, A549, 72 h
Method: as §1, §2

PC-3 (prostate cancer) = assay: MTT cell growth inhibition, PC-3 cells, 72 h; type: cell-based, human; conditions: Homo sapiens, PC-3, 72 h
Method: as §1, §2

[11] = system: H9 (acute lymphoblastic leukemia, ALL); assay: MTT cell growth inhibition, H9 leukemia cells, 72 h; type: cell-based; conditions: H9, 72 h
Method: as §1, with “with” for “with a”, “to a” for “to the”
as §2, with “leukemia” for “human solid tumor”, “the RPMI-1640” for “DMEM High Glucose”, “serum.” for “serum. The plate is placed in a carbon dioxide cell incubator (5% CO2) at 37° C. and incubated for 24 hours.”, “adding on the second day” for “adding”, “uniformly, placing” for “uniformly,”, “plate” for “plate is placed”

[12] = system: SK-OV-3 (ovarian cancer cell); assay: MTT cell growth inhibition, SK-OV-3 cells, 72 h; type: cell-based, human
Method: as §1, §2

[13] = system: Hep-2 (laryngeal carcinoma); assay: MTT cell growth inhibition, Hep-2 cells, 72 h; type: cell-based, human; conditions: Homo sapiens, HEp-2, 72 h
Method: as §1, §2

[14] = system: K562/adr (drug-resistant, chronic myeloid leukemia, CML); assay: MTT cell growth inhibition, K562/adr leukemia cells, 72 h; type: cell-based; conditions: Homo sapiens, K562/Adr
Method: as §1, with “with” for “with a”, “to a” for “to the”
as §2, with “leukemia” for “human solid tumor”, “the RPMI-1640” for “DMEM High Glucose”, “serum.” for “serum. The plate is placed in a carbon dioxide cell incubator (5% CO2) at 37° C. and incubated for 24 hours.”, “adding on the second day” for “adding”, “uniformly, placing” for “uniformly,”, “plate” for “plate is placed”

[15] = system: RPMI8226 (multiple myeloma); assay: MTT cell growth inhibition, RPMI8226 multiple myeloma cells, 72 h; type: cell-based, human
Method: as §1, with “with” for “with a”, “to a” for “to the”
as §2, with “leukemia” for “human solid tumor”, “the RPMI-1640” for “DMEM High Glucose”, “serum.” for “serum. The plate is placed in a carbon dioxide cell incubator (5% CO2) at 37° C. and incubated for 24 hours.”, “adding on the second day” for “adding”, “uniformly, placing” for “uniformly,”, “plate” for “plate is placed”

[16] = system: Kasumi-1 (acute myeloid leukemia M2 type, AML-M2); assay: MTT cell growth inhibition, Kasumi-1 leukemia cells, 72 h; type: cell-based; conditions: Homo sapiens, Kasumi-1, 72 h
Method: as §1, with “with” for “with a”, “to a” for “to the”
as §2, with “leukemia” for “human solid tumor”, “the RPMI-1640” for “DMEM High Glucose”, “serum.” for “serum. The plate is placed in a carbon dioxide cell incubator (5% CO2) at 37° C. and incubated for 24 hours.”, “adding on the second day” for “adding”, “uniformly, placing” for “uniformly,”, “plate” for “plate is placed”

[17] = system: Hela (human cervical cancer cell); assay: MTT cell growth inhibition, Hela cells, 72 h; type: cell-based
Method: as §1, §2

SMILES: Cc1c(-c2ccc(OCC(O)CO)cc2)oc2c1C(=O)C(=O)c1c-2ccc2c(C)cccc12 (stereo not shown) [BS-TA-301]
- IC50 ([1]; Homo sapiens, CNE, 72 h, read-out: IC50): 3.2 µg/mL (≈ 7.23 µM)
- IC90 ([1]; Homo sapiens, CNE, 72 h, read-out: IC90): 45 µg/mL (≈ 102 µM)
- anti-CNE activity (in words) ([1]; Table 2): good antitumor activity
- IC50 ([2]; read-out: IC50): 3.78 µg/mL (≈ 8.54 µM)
- IC90 ([2]; read-out: IC90): > 16 µg/mL
- IC50 ([3]; read-out: IC50): 0.31 µg/mL (≈ 0.701 µM)
- IC90 ([3]; read-out: IC90): 3.22 µg/mL (≈ 7.28 µM)
- IC50 (MG63 (osteosarcoma); read-out: IC50): 1.62 µg/mL (≈ 3.66 µM)
- IC90 (MG63 (osteosarcoma); read-out: IC90): 7.44 µg/mL (≈ 16.8 µM)
- IC50 ([4]; Homo sapiens, 72 h, read-out: IC50): 0.48 µg/mL (≈ 1.08 µM)
- IC90 ([4]; Homo sapiens, 72 h, read-out: IC90): > 16 µg/mL
- improvement of anti-Jurkat activity as compared with tanshinone I per se ([4]; vs tanshinone I): more than 3 fold
- IC50 ([5]; read-out: IC50): 7.34 µg/mL (≈ 16.6 µM)
- IC90 ([5]; read-out: IC90): 24.1 µg/mL (≈ 54.5 µM)
- IC50 ([6]; Homo sapiens, U-87 MG, U87-MG, 72 h, read-out: IC50): 2.85 µg/mL (≈ 6.44 µM)
- IC90 ([6]; Homo sapiens, U-87 MG, U87-MG, 72 h, read-out: IC90): 15.4 µg/mL (≈ 34.9 µM)
- anti-U87 MG activity (in words) ([6]; Table 2): superior to that of tanshinone I per se
- IC50 ([7]; read-out: IC50): 1.74 µg/mL (≈ 3.93 µM)
- IC90 ([7]; read-out: IC90): 16 µg/mL (≈ 36.2 µM)
- IC50 ([8]; Homo sapiens, RKO, 72 h, read-out: IC50): 0.87 µg/mL (≈ 1.97 µM)
- IC90 ([8]; Homo sapiens, RKO, 72 h, read-out: IC90): 26.6 µg/mL (≈ 60 µM)
- anti-RKO activity (in words) ([8]; Table 2): superior to that of tanshinone I per se
- IC50 ([9]; Homo sapiens, Becap-37, 72 h, read-out: IC50): 1.99 µg/mL (≈ 4.5 µM)
- IC90 ([9]; Homo sapiens, Becap-37, 72 h, read-out: IC90): 7.83 µg/mL (≈ 17.7 µM)
- anti-Becap37 activity (in words) ([9]; Table 2): superior to that of tanshinone I per se
- IC50 ([10]; Homo sapiens, HepG2, Hep G2, 72 h, read-out: IC50): 2.09 µg/mL (≈ 4.72 µM)
- IC90 ([10]; Homo sapiens, HepG2, Hep G2, 72 h, read-out: IC90): 16.3 µg/mL (≈ 36.9 µM)
- anti-Hep G2 activity (in words) ([10]; Table 2): superior to that of tanshinone I per se
- IC50 (A549 (human lung cancer); read-out: IC50): 6.68 µg/mL (≈ 15.1 µM)
- IC90 (A549 (human lung cancer); read-out: IC90): 25.9 µg/mL (≈ 58.5 µM)
- IC50 (PC-3 (prostate cancer); read-out: IC50): 9.94 µg/mL (≈ 22.5 µM)
- IC90 (PC-3 (prostate cancer); read-out: IC90): > 16 µg/mL
- IC50 ([11]; read-out: IC50): 3 µg/mL (≈ 6.78 µM)
- IC90 ([11]; read-out: IC90): > 16 µg/mL
- IC50 ([12]; Homo sapiens, SK-OV-3, 72 h, read-out: IC50): 11.7 µg/mL (≈ 26.5 µM)
- IC90 ([12]; Homo sapiens, SK-OV-3, 72 h, read-out: IC90): > 16 µg/mL
- anti-SK-OV-3 activity (in words) ([12]; Table 2): superior to that of tanshinone I per se
- IC50 ([13]; read-out: IC50): 5.27 µg/mL (≈ 11.9 µM)
- IC90 ([13]; read-out: IC90): > 16 µg/mL
- IC50 ([14]; read-out: IC50): 1.36 µg/mL (≈ 3.07 µM)
- IC90 ([14]; read-out: IC90): 7.61 µg/mL (≈ 17.2 µM)
- IC50 ([15]; Homo sapiens, RPMI 8226, 72 h, read-out: IC50): 0.58 µg/mL (≈ 1.31 µM)
- IC90 ([15]; Homo sapiens, RPMI 8226, 72 h, read-out: IC90): 16.2 µg/mL (≈ 36.6 µM)
- anti-RPMI8226 cell line activity (in words) ([15]; as compared with tanshinone I per se): improves the anti-RPMI8226 cell line activity significantly
- IC50 ([16]; read-out: IC50): 0.97 µg/mL (≈ 2.19 µM)
- IC90 ([16]; read-out: IC90): 31.1 µg/mL (≈ 70.3 µM)
- IC50 ([17]; Homo sapiens, HeLa, 72 h, read-out: IC50): 1.07 µg/mL (≈ 2.42 µM)
- IC90 ([17]; Homo sapiens, HeLa, 72 h, read-out: IC90): 24 µg/mL (≈ 54.3 µM)
- anti-Hela activity (in words) ([17]; Table 2): superior to that of tanshinone I per se
